Results on one substance are retold here after article PMC7146381, “Modulation of Adhesion Process, E-Selectin and VEGF Production by Anthocyanins and Their Metabolites in an In Vitro Model of Atherosclerosis” (Nutrients, 2020).

For this data set, the system named is HUVECs. The data set is described as follows: Cytotoxicity, Trypan blue assay on HUVECs. The data set is classed as cell-based, Human. The conditions noted are these: positive control, HUVEC cells, data not shown; p < 0.0001 vs cells with and without TNF-α (99%). The procedure:
The cytotoxicity of the compounds was tested by Trypan blue and (3-(4,5-dimethylthiazol-2-yl)-2, 5-diphenyltetrazolium bromide (MTT) assay on HUVECs, according to the manufacturer’s instructions. Triton X-100 was used as positive control. Two independent experiments were performed in which each compound and concentration was tested in quadruplicate.

Turning to Triton X-100 [reference compound], the “cell viability reduced up to” value came to 20%.
